Results reported in article PMC11379708, “Divergent mechanisms of steroid inhibition in the human ρ1 GABAA receptor” (Nature Communications, 2024).
Structures can show the parent of a compound that is named as a salt.

Legend:
human ρ1 GABAA receptor [1] = biological target: T1, human ρ1 GABAA receptor (Homo sapiens, UniProt P24046); assay: cryo-EM structure with GABA; TEVC voltage-dependent block (Woodhull fit); type: cell-based
T1 construct: gene GABRR1; ρ1-EM (flexible N-terminal region and intracellular M3-M4 loop deleted), homopentamer in saposin nanodiscs
T1 sequence (P24046 22-479): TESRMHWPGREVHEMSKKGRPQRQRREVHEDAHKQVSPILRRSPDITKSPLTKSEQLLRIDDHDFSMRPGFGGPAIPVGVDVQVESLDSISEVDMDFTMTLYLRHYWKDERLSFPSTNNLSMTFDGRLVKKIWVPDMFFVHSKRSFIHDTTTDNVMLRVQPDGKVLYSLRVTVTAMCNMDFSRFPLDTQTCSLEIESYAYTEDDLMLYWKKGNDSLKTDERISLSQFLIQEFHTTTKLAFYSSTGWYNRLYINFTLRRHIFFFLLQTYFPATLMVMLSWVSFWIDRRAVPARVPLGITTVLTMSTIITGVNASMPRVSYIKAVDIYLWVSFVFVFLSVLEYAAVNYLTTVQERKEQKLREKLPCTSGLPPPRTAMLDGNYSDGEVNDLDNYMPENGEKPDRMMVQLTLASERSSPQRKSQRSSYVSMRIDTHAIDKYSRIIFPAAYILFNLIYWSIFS

human ρ1 GABAA receptor [2] = biological target: T1, human ρ1 GABAA receptor; assay: cryo-EM structure ([…] Å); TEVC inhibition in Xenopus oocytes; F283Y/F284Y ablates inhibition; type: cell-based

IC50 (human ρ1 GABAA receptor [2]) [µM] | SMILES | Kd (human ρ1 GABAA receptor [1]) [µM]
 | CC(=O)C1CCC2C3CC=C4CC(OS(=O)(=O)O)CCC4(C)C3CCC12C (centres unmarked) [PS, pregnenolone sulfate] | 36.3
~30 | C[C@]12CC[C@@H]3c4ccc(O)cc4CC[C@H]3[C@@H]1CC[C@@H]2O [E2, β-estradiol] | 
